# Columns and labels:
# [1] = tested on: HT-29 tumor xenografts; assay: HT-29 tumor xenograft in NSG mice; format: in vivo; settings: 12.5 mg/kg three times per week
# Experimental: FIGS. 4A-4F show AP-4-139B is efficacious as a single agent against human CRC in vitro and in vivo. FIG. 4A: Three CRC cell lines (HT-29, LS411N, and SW620) were treated with 10 μM of PET-16 or AP-4-139B for 48 hours. Cell were then subjected to viability assays using Trypan Blue exclusion. *** p<0.001. […] FIGS. 4B-4C: A panel of six CRC cell lines (SW620, HT-29, HCT 116+/−p53, RKO, and LS411N) were plated at a density of 1,000 cells per well in 96-well plates. The next day, cells were treated with the indicated inhibitors for 72 hours. Cells were then subjected to the Alamar Blue cell viability assays. Shown are representative IC50 values of an average of six technical replicates and two biological replicates. FIG. 4D: 2.5×10^6 HT-29 cells were injected subcutaneously into the right flank of NSG mice. Once tumors reached an approximate volume of 100 mm^3, mice were separated randomly into two groups: control vs. AP-4-139B. Mice were treated with 12.5 mg/kg AP-4-139B three times a week. All mice were euthanized 22 days after the start of treatment. Tumor volumes were recorded using digital calipers and using the formula v=length×width^2×0.52. *** p<0.001. n=10 mice per group. FIG. 4E: Immunohistochemistry (IHC) analysis of HT-29 xenograft tumors treated with AP-4-139B. Shown are representative images (4-6 random fields of view per condition) of Ki67 (proliferation) and Cleaved Lamin A (cell death). n=4 mice per group. Scale bar=100 μm. Respective IgG antibody was used as the negative control.
# FIGS. 8A-8E show HSP70 inhibition is effective on mouse CRC cell lines. FIG. 8A: Association of HSPA1A gene expression and survival rate of patients with colorectal adenocarcinoma (COAD). Patient data was gathered from USCS Xena platform (GDC-TCGA COAD; n=435). Log-rank test was used to determine significance. p=0.0004. FIG. 8B: Association of HSPA1A gene expression and stage of COAD (n=440). Wilcoxon rank sum test was used to determine significance. * p<0.05, *** p<0.001. FIG. 8C: Body weights of mice injected with HT-29 tumor xenografts. Weights were measured at the start of the treatment to determine mouse toxicity. n.s. not significant, n=10 mice per group. FIG. 8D: H&E staining of livers and colons of mice injected with HT-29 tumor xenografts. Tissues were collected at the end of the study. FIG. 8E. Pharmacokinetic values of AP-4-139B in the liver, plasma, and brain from three CDI mice treated with 10 mg/kg of compound.
# Shown are representative images of COXIV and a-SMA. n=5 mice per group. Scale bar=100 μm.
# All studies were carried out in accordance with the recommendations in the Guide for the Care and Use of Laboratory Animals of the National Institutes of Health (NIH). All protocols were approved by The Wistar Institute Institutional Animal Care and Use Committee (IACUC). Mice were housed in plastic cages with ad libitum diet and maintained with a 12-hour dark/12-hour light cycle at 22° C. For human xenograft studies, 2.5×10^6 HT-29 cells were injected subcutaneously into the right flanks of 6-8 week old male NSG (NOD.Cg-Prkdcscid II2rgtm1 Wjl/SzJ) mice. For mouse xenograft studies, 1×10^6 MC38 cells were subcutaneously into the right flanks of 6-8 week old male C57Bl/6J mice. Tumor volumes were measured using digital calipers and tumor volume was calculated using the formula: volume=(length×width^2)×0.52. All mice were monitored daily for signs of pain or distress.
# [2] = tested on: MC38 tumors; assay: Syngeneic model of MC38 tumors in C57Bl/6 mice; format: in vivo, mouse; settings: 10 mg/kg every 48 hours
# Experimental: FIGS. 5A-5F show AP-4-139B is efficacious against CRC in an immunocompetent model, and causes immune cell recruitment. FIGS. 5A-5B: Mouse CRC cell lines, MC38 (FIG. 5A) and CT26 (FIG. 5B), were plated at a density of 1,000 cells per well in 96-well plates. The next day, cells were treated with the indicated inhibitors for 72 hours. Cells were then subjected to the Alamar Blue cell viability assays. Shown are representative IC50 values of an average of six technical replicates and two biological replicates. FIG. 5C: Mouse CRC cell lines MC38 and CT26 were treated with 10 μM AP-4-139B for 24 or 48 hours and immunoblotted for HSP70, p53, AKT, Cleaved Lamin A (CLA), Cleaved Caspase 3, MRPS14, and GAPDH (loading control). The doublet detected for HSP70 is seen in other murine cell lines, and may represent a degradation product or post-translational modification. FIG. 5D: 1×10^6 MC38 cells were injected subcutaneously into the right flank of 6-8 week old male C57Bl/6 mice. Once tumors reached an approximate volume of 50 mm^3, mice were separated randomly into two groups: vehicle vs. AP-4-139B. Mice were treated with 10 mg/kg AP-4-139B every 48 hours. All mice were euthanized 20 days after the start of treatment. Tumor volumes were recorded using digital calipers and using the formula v=length×width^2×0.52. *** p<0.001. n=15 mice per group.
# FIG. 5E: Immunohistochemistry (IHC) analysis of MC38 tumors treated with AP-4-139B. Shown are representative images (4-6 random fields of view per condition from four independent tumors) of CD8^+ T cells and Granzyme B (marker for activated immune cells). Respective IgG antibody was used as the negative control. Scale bars=100 μm. FIG. 5F: Quantification of FIG. 5E * p<0.05; ** p<0.01.
# FIG. 9A: Body weights of mice injected with HT-29 tumor xenografts. Weights were measured at the start of the treatment to determine mouse toxicity. n.s. not significant, n=15 mice per group. FIG. 9B: Immunohistochemistry (IHC) analysis of MC38 tumors treated with AP-4-139B. Shown are representative images (4-6 random fields of view per condition from four independent tumors) of CD4^+ T cells. Respective IgG antibody was used as the negative control. Scale bars=100 μm. FIG. 9C: Quantification of FIG. 9B.
# All studies were carried out in accordance with the recommendations in the Guide for the Care and Use of Laboratory Animals of the National Institutes of Health (NIH). All protocols were approved by The Wistar Institute Institutional Animal Care and Use Committee (IACUC). […] Tumor volumes were measured using digital calipers and tumor volume was calculated using the formula: volume=(length×width^2)×0.52. All mice were monitored daily for signs of pain or distress.
compound,measurement,setting,value
"c1ccc(-c2cn3nc(CCCCCC[P+](c4ccccc4)(c4ccccc4)c4ccccc4)sc3n2)cc1 [AP-4-139B, Triphenyl(6-(6-phenylimidazo[2,1-b][1,3,4]thiadiazol-2-yl)hexyl)phosphonium bromide]",Ki-67 staining in tumors,[1],reduced staining for Ki-67
same,cleaved lamin A staining in tumors (apoptosis),[1],increased staining for cleaved lamin A
same,loss of mitochondria in treated tumors (COX IV staining),[1],No evidence was found that AP-4-139B caused obvious loss of mitochondria
same,progression of HT-29 tumor xenografts,[1],significantly reduced the progression of HT-29 tumor xenografts
same,"toxicity (weight loss, liver or colon architecture)",[1],No evidence for toxicity
same,CD4+ T cells in tumors (IHC),[2],increase in CD4+ T cells
same,infiltrating CD8+ T cells in tumors (IHC),[2],large percentage of infiltrating CD8^+ T cells
same,weight loss of mice during treatment,[2],no evidence of weight loss
same,efficacy in syngeneic MC38 tumors,[2]; p<0.001,significant efficacy as a single agent

# Reference: patent US12616753B2, “HSP70 inhibitors and methods of using same” (THE WISTAR INSTITUTE, priority 2020, dated 2026)
